Results: the supplement of paper PMC11061612

Columns and labels:
Assay in all cases: combination Emax (second highest fraction inhibited in the dose matrix, 72 h); higher = more inhibition; extreme values may be limits of the assay
[1] = tested on: RCM-1 (Colorectal Carcinoma)
In short: (§1)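 Cell lines in DMEM/F12 or RPMI with 10% FBS were plated in 1536-well plates, held 24 hours at 37°C, 5% CO2, then given two-drug dose matrices for 72 hours (DMSO typically 0.2%). Viability was read by CellTiter-Glo 2.0 luminescence and scaled as inhibition from 0 (vehicle wells) to 1 (blank wells). Combination Emax is the second-highest inhibition in the matrix; Bliss excess is observed combination effect minus expected EA + EB − EA·EB, EA and EB being single-agent effects.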

[2] = tested on: PC-3_[JPC-3] (Lung Adenocarcinoma)
In short: as §1

[3] = tested on: COLO-680N (Esophageal Squamous Cell Carcinoma)
In short: as §1

[4] = tested on: VAL (B-Cell Non-Hodgkin's Lymphoma)
In short: as §1

[5] = tested on: PANC-03-27 (Pancreatic Carcinoma)
In short: as §1

[6] = tested on: NCI-H2342 (Lung Adenocarcinoma)
In short: as §1

[7] = tested on: TE-8 (Esophageal Squamous Cell Carcinoma)
In short: as §1

IST-MES1 (Mesothelioma) = tested on: IST-MES1 (Mesothelioma)
In short: as §1

[8] = tested on: MKN45 (Gastric Carcinoma)
In short: as §1

[9] = tested on: REH (B-Lymphoblastic Leukemia)
In short: as §1

[10] = tested on: SK-PN-DW (Other Solid Carcinomas)
In short: as §1

NB12 (Neuroblastoma) = tested on: NB12 (Neuroblastoma)
In short: as §1

[11] = tested on: CAL-62 (Thyroid Gland Carcinoma)
In short: as §1

[12] = tested on: OVMIU (Ovarian Carcinoma)
In short: as §1

[13] = tested on: RKN (Other Solid Carcinomas)
In short: as §1

[14] = tested on: L-1236 (Hodgkin's Lymphoma)
In short: as §1

[15] = tested on: LK-2 (Squamous Cell Lung Carcinoma)
In short: as §1

SK-MEL-2 (Melanoma) = tested on: SK-MEL-2 (Melanoma)
In short: as §1

[16] = tested on: SHP-77 (Small Cell Lung Carcinoma)
In short: as §1

[17] = tested on: OPM-2 (Plasma Cell Myeloma)
In short: as §1

Row | SMILES | combination Emax [1] | combination Emax [2] | combination Emax [3] | combination Emax [4] | combination Emax [5] | combination Emax [6] | combination Emax [7] | combination Emax (IST-MES1 (Mesothelioma)) | combination Emax [8] | combination Emax [9] | combination Emax [10] | combination Emax (NB12 (Neuroblastoma)) | combination Emax [11] | combination Emax [12] | combination Emax [13] | combination Emax [14] | combination Emax [15] | combination Emax (SK-MEL-2 (Melanoma)) | combination Emax [16] | combination Emax [17]
1 | CN(CCO)CC[C@H](CSc1ccccc1)Nc1ccc(S(=O)(=O)NC(=O)c2ccc(N3CCC([C@@H](O)c4ccccc4-c4ccc(Cl)cc4)CC3)cc2)cc1S(=O)(=O)C(F)(F)F [AZD4320] + CS(=O)(=O)CCNCc1ccc(-c2ccc3ncnc(Nc4ccc(OCc5cccc(F)c5)c(Cl)c4)c3c2)o1 [Lapatinib] (first compound max 1 µM, 7x7, partner max 10 µM) | 0.901 | 0.912 | 0.481 | 1 | 0.907 | 0.368 | 0.744 | 0.892 | 0.2 | 1 | 0.85 | 1 | 0.911 | 0.971 | 0.212 | 1 | 0.977 | 0.27 | 0.969 | 0.938
2 | C[C@@H]1COCCN1c1cc(C2([S@](C)(=N)=O)CC2)nc(-c2ccnc3[nH]ccc23)n1 [AZD6738] + C1CC(C1)(C(=O)[O-])C(=O)[O-].N.N.[Pt+2] [Carboplatin] (first compound max 10 µM, 7x7, partner max 10 µM) | 0.638 | 0.294 | 0.287 | 0.7 | 0.652 | 0.492 | 0.522 | 0.461 | 0.708 | 0.629 | 0.903 |  | 0.684 | 0.547 | 0.286 | 0.807 | 0.406 | 0.201 | 0.506 | 0.828
3 | C[C@@H](Oc1cc(-c2cnn(C3CCNCC3)c2)cnc1N)c1c(Cl)ccc(F)c1Cl [Crizotinib] + Cn1cnc2c(F)c(Nc3ccc(Br)cc3Cl)c(C(=O)NOCCO)cc21 [Selumetinib] (first compound max 10 µM, 7x7, partner max 10 µM) | 0.761 | 0.242 | 0.319 | 0.758 | 0.543 | 0.285 | 0.631 | 0.864 | 0.902 | 0.721 | 0.739 | 0.79 | 0.564 | 0.498 | 0.48 | 0.975 | 0.749 | 0.881 | 0.411 | 0.985
4 | C[C@@H](Nc1cc(F)cc(F)c1)c1cc(C(=O)N(C)C)cc2c(=O)cc(N3CCOCC3)oc12 [AZD8186] + C1CN(CCC1(C(=O)N[C@@H](CCO)C2=CC=C(C=C2)Cl)N)C3=NC=NC4=C3C=CN4 [AZD5363] (first compound max 10 µM, 7x7, partner max 10 µM) | 0.233 | 0.295 | 0.245 | 0.555 | 0.315 | 0.286 | 0.455 | 0.267 | 0.455 | 0.452 | 0.575 | 0.419 | 0.165 | 0.509 | 0.328 | 0.722 | 0.177 | 0.113 | 0.275 | 0.922
5 | N#Cc1cnc(Nc2cc(NC[C@H]3CNCCO3)c(C(F)(F)F)cn2)cn1 [SRA737] + Nc1ccn([C@@H]2O[C@H](CO)[C@@H](O)C2(F)F)c(=O)n1 [Gemcitabine] (first compound max 10 µM, 7x7, partner max 0.3 µM) | 0.688 | 0.6 | 0.47 | 0.809 | 0.729 | 0.841 | 0.749 | 0.857 | 0.761 | 0.989 | 0.933 | 0.742 | 0.799 | 0.456 | 0.812 | 0.948 | 0.918 | 0.504 | 0.907 | 0.911
6 | O=C(c1cc(Cc2n[nH]c(=O)c3ccccc23)ccc1F)N1CCN(C(=O)C2CC2)CC1 [Olaparib] + Cc1c2c(nn1C)CSCc1cc(n(C)n1)CSc1cc(c3ccccc3c1)OCCCc1c(C(=O)O)n(C)c3c-2c(Cl)ccc13 [AZD5991] (first compound max 10 µM, 7x7, partner max 1 µM) | 0.0639 | 0.0845 | 0.0855 | 0.771 | 0.128 | 0.239 | 0.184 | 0.242 | 0.185 | 0.943 | 0.781 | 0.379 | 0.0932 | 0.104 | 0.161 | 0.53 | 0.301 | 0.902 | 0.288 | 1
7 | N#Cc1cnc(Nc2cc(NC[C@H]3CNCCO3)c(C(F)(F)F)cn2)cn1 [SRA737] + CCc1c2c(nc3ccc(O)cc13)-c1cc3c(c(=O)n1C2)COC(=O)[C@]3(O)CC [SN-38] (first compound max 10 µM, 7x7, partner max 0.3 µM) | 0.768 | 0.72 | 0.552 | 0.947 | 0.844 | 0.74 | 0.838 | 0.759 | 0.868 | 0.991 | 0.927 | 0.705 | 0.865 | 0.404 | 0.858 | 0.944 | 0.906 | 0.693 | 0.912 | 0.926
